Assay results taken from patent US20260166115A1, “POLYUNSATURATED FATTY ACID-BOUND ALPHA FETOPROTEIN PROMOTES IMMUNE SUPPRESSION BY ALTERING HUMAN DENDRITIC CELL METABOLISM” (The Regents of the University of California, priority 2022, published 2026).

Experiments:
Assay type in all cases: cell-based, human
[1] = system: iDCs and mDCs; test: Fatty acid screen: fatty acids added back to HMM OVA, nAFP or tAFP; settings: for CD206 expression at the iDC stage / inhibition of CD206 expression, mDC: FA combined with tAFP; for CD206 expression compared to controls: FA+HMM tAFP
Description: Fatty acids were resuspended in ethanol and stored at −20° C. at 100 uM.

[2] = system: iDCs; test: Fatty acid screen: fatty acids titrated onto iDCs without OVA, nAFP or tAFP; settings: for lactate production: relative to control cells, 16:0 at 5-20 μM in b86
Text: We developed an in vitro assay to screen specific FAs that are necessary for tAFP-mediated suppression of DC formation (FIG. 6A). Many of the FAs screened have known roles in promoting (Weatherill, A. R. et al. Saturated and Polyunsaturated Fatty Acids Reciprocally Modulate Dendritic Cell Functions Mediated through TLR4. J Immunol. 174, 5390-5397 (2005); Lancaster, G. I. et al. Evidence that TLR4 Is Not a Receptor for Saturated Fatty Acids but Mediates Lipid-Induced Inflammation by Reprogramming Macrophage Metabolism. Cell Metab. 27, 1096-1110.e5 (2018)) or limiting DC differentiation (Zeyda, M. et al. Polyunsaturated Fatty Acids Block Dendritic Cell Activation and Function Independently of NF-κB Activation. J Biol. Chem. 280, 14293-14301 (2005)). Therefore, to determine their necessity for tAFP-mediated DC suppression, we titrated several FAs unique to tAFP (20:3 N6, 20:5, and 22:5 N3), and other PUFAs to determine the concentration they lost their inherent ability to suppress DC differentiation in the absence of OVA, nAFP, or tAFP (FIG. 6A). […] All three PUFAs at high concentrations inhibited CD206 expression on DCs (Zeyda. M. et al. Polyunsaturated Fatty Acids Block Dendritic Cell Activation and Function Independently of NF-κB Activation. J Biol. Chem. 280, 14293-14301 (2005)), at levels equivalent to or greater than tAFP treatment.
Fatty acids were resuspended in ethanol and stored at −20° C. at 100 uM. […] Both the native preparations and HMM fractions contained similar amounts of protein (˜0.5 mg/mL), whereas protein was undetectable ([…]) in the low molar mass (LMM) fraction. […] Fats (+/−HMM) were added to pre-warmed media and incubated for 1 hour, mixing at 37° C. before adding to cells (Alsabeeh, N., Chausse, B., Kakimoto, P. A., Kowaltowski, A. J. & Shirihai, O. Cell Culture Models of Fatty Acid Overload: Problems and Solutions. Biochim. Biophys. Acta 1863, 143-151 (2018)). Fats were combined with HMM at a 3:1 molar ratio, as previously described (Alsabeeh, N., Chausse, B., Kakimoto, P. A., Kowaltowski, A. J. & Shirihai. O. Cell Culture Models of Fatty Acid Overload: Problems and Solutions. Biochim. Biophys. Acta 1863, 143-151 (2018)).

[3] = system: monocyte-derived dendritic cells (DCs); test: SCENITH single-cell energetic metabolism profiling of treated DCs; settings: DC
Text: (§1) DCs were differentiated in vitro similarly as previously described (Pardee, A. D., Shi, J. & Butterfield, L. H. Tumor-Derived α-Fetoprotein Impairs the Differentiation and T Cell Stimulatory Activity of Human Dendritic Cells. J Immunol. 193, 5723-5732 (2014)). In brief, cryopreserved PBMC were thawed and CD14*monocytes were magnetically labeled using CD14 MicroBeads (Miltenyi, Cat #130-050-201) and isolated by LS columns (Miltenyi, Cat #130-042-401) per the manufacturer instructions. Viable eluted cells were enumerated using trypan blue on a Nexcelom Cellometer Spectrum. To generate iDCs, monocytes were stimulated for 5 days in the presence of 800 IU/mL of rGM-CSF (Miltenyi, Cat #130-093-862) and 500 IU/mL of rIL-4 (Miltenyi, Cat #130-095-373) as well as OVA, nAFP, or tAFP in CellGenix® GMP DC media (Cat #20801-0500) 37° C. at 5% CO2. Lastly, we performed an additional 24-hour stimulation with 1000 IU/mL of rIFN-γ (Peprotech, Cat #300-02) and 250 ng/mL of LPS (Sigma Aldrich, Cat #L2630-10MG) to produce mDCs. To harvest cells, DC were detached using TrypLE™ Select (Gibco, Cat #12563011) for 15 minutes at 37° C. and then washed several times with cold PBS.
SCENITH was performed as described in (Arguello et al., 2020). SCENITH™ reagents kit (inhibitors, puromycin and antibodies) were obtained from www.scenith.com/try-it and used according to the provided protocol for in-vitro derived myeloid cells. Briefly, control and tol-moDC cultures at desired timepoints, were treated for 18 minutes with Control (DMSO), 2-Deoxy-Glucose (2-DG; 100 mM), Oligomycin (0; 1 μM), a combination of 2DG and Oligomycin (DGO) or Harringtonine (H; 2 μg/mL). Following metabolic inhibitors, Puromycin (final concentration 10 μg/mL) was added to cultures for 17 min. After puromycin treatment, cells were detached from wells using TypLE Select (Fisher Scientific, 505914419), washed in cold PBS and stained with a combination of Human TureStain FcX (Biolegend, 422301) and fluorescent cell viability dye (Biolegend, 423105) for 10 min 4° C. in PBS. Following PBS wash step, primary antibodies against surface markers were incubated for 25 min at 4° C. in Brilliant Stain Buffer (BD Biosciences, 563794). Next cells were fixed and permeabilized using True-Nuclear Transcription Factor Buffer Set (Biolegend, 424401) as per manufacturer instructions. Intracellular staining of puromycin and protein targets was performed for 1 h in diluted (10×) permeabilization buffer at 4° C. Finally, data acquisition was performed using the Cytek Aurora flow cytometer. Primary conjugated antibody information used in SCENITH panel is listed in supplementary table 1. All antibodies were titrated to reduce spillover and increase resolution using single stained moDC (generated as described above) samples. Unstained cell controls used for autofluorescence extraction were generated for each time point, culture conditions (control, vitd3-tol-moDC and dexa-vitd3-tol-moDC) and metabolic inhibitor treatments (C, 2DG, O, DGO). Samples were unmixed using reference controls generated in combination with stained Ultracomp beads (Fisher Scientific, 01-2222-41) and stained cells using the SpectroFlo Software v2.2.0.1. The unmixed FCS files were used for data processing and analysis using FlowJo (BD, version 10.7.1). Manually gated CD14-HLA-DR*CD86+ cells were used for downstream analysis. gMFI expression values were imported into R environment for correlation and heatmap analysis using the below described R packages.

[4] = system: mDCs generated in vitro; test: scMEP single-cell metabolic regulome profiling by CyTOF
Description: scMEP analysis was performed as recently described (Hartmann et al., 2021). In short, antibodies targeting metabolic features were conjugated in-house using an optimized conjugation protocol (Hartmann et al., 2019) and validated on multiple sample types. Cells were prepared for scMEP analysis by incubation with small molecules to be able to assess biosynthesis rates of DNA, RNA and protein, cisplatin-based live/dead staining, PFA-based cell fixation and cryopreservation (dx.doi.org/10.17504/protocols.io.bkwkkxcw). Next, cells were stained with metabolic antibodies in a procedure that includes surface staining for 30 min at RT, PFA-fixation for 10 min at RT, MeOH-based permeabilization for 10 min on ice, intracellular staining for 1 h at RT and DNA intercalation (dx.doi.org/10.17504/protocols.io.bntnmeme). Finally, cells were acquired on a CyTOF2 mass cytometer (Fluidigm). Protein targets and antibody information used in scMEP are listed in supplementary table 2. Raw mass spectrometry data were pre-processed, de-barcoded and imported into R environment using the flowCore package (version 2.0.1) (Hahne et al., 2009). Values were arcsin h transformed (cofactor 5) and normalized (Hartmann et al., 2021) for downstream analyses based on previously reported workflow (Nowicka et al., 2017).

[5] = system: monocyte-derived dendritic cells (DCs); test: Glucose and lactate measurements in DC cultures; settings: DC
Text: as §1
Glucose and lactate were measured by applying approximately 5 μL of supernatant to Clarity BG1000 Blood Glucose strips (Cat #75840-798) and meter (Cat #75840-800) system or the Lactate Plus strips (Nova Biomedical©, Cat #40813) and meter version 2 (Nova Biomedical©, Cat #62624) system. Each meter was quality checked with control glucose and lactate solutions and CellGenix™ media before each experiment.

CCCCC/C=C\C/C=C\C/C=C\CCCCCCC(=O)O [20:3 N6, dihomo-γ-linolenic acid] was tested, and the “CD206 expression at the iDC stage” value [1] was “immunoregulatory activity”, the “inhibition of CD206 expression, mDC” value [1] was about -15% and the “CD206 expression compared to controls” value [1] was “significantly reduced”.

CCCCCCCCCCCCCCCC(=O)O [16:0, palmitic acid] was tested, and the ox-phos [2] was “can promote”, the “CD206 expression on DCs” value ([2]; fatty acid alone) was “increase” and the DC differentiation ([2]; fatty acid alone) was “tended to promote”. For the same molecule, the lactate production ([2]; fatty acid alone) was “tended to decrease” and the lactate production ([2]; fatty acid alone, listed as palmitic acid) was “decrease”.

For CCCCC/C=C\C/C=C\C/C=C\C/C=C\CCCC(=O)O [20:4, arachidonic acid], the “CD206 expression at the iDC stage” value [1] was “immunoregulatory activity”, the “inhibition of CD206 expression, mDC” value [1] was about -15% and the “CD206 expression compared to controls” value [1] was “significantly reduced”.

With CCCCC/C=C\C/C=C\C/C=C\C/C=C\CCCCCC(=O)O [22:4, adrenic acid] the “inhibition of CD206 expression, mDC” value [1] was about -15%.

B1: palmitic acid-bound AFP: alpha fetoprotein non-covalently bound to palmitic acid (protein, UniProt P02771 19-609, looked up)
Alpha-fetoprotein: RTLHRNEYGIASILDSYQCTAEISLADLATIFFAQFVQEATYKEVSKMVKDALTAIEKPTGDEQSSGCLENQLPAFLEELCHEKEILEKYGHSDCCSQSEEGRHNCFLAHKKPTPASIPLFQVPEPVTSCEAYEEDRETFMNKFIYEIARRHPFLYAPTILLWAARYDKIIPSCCKAENAVECFQTKAATVTKELRESSLLNQHACAVMKNFGTRTFQAITVTKLSQKFTKVNFTEIQKLVLDVAHVHEHCCRGDVLDCLQDGEKIMSYICSQQDTLSNKITECCKLTTLERGQCIIHAENDEKPEGLSPNLNRFLGDRDFNQFSSGEKNIFLASFVHEYSRRHPQLAVSVILRVAKGYQELLEKCFQTENPLECQDKGEEELQKYIQESQALAKRSCGLFQKLGEYYLQNAFLVAYTKKAPQLTSSELMAITRKMAATAATCCQLSEDKLLACGEGAADIIIGHLCIRHEMTPVNPGVGQCCTSSYANRRPCFSSLVVDETYVPPAFSDDKFIFHKDLCQAQGVALQTMKQEFLINLVKQKPQITEEQLEAVIADFSGLLEKCCQGQEQEVCFAEEGQKLISKTRAALGV
modifications: non-covalently bound palmitic acid
B1 was tested, and the “CD206 expression in dendritic cells” value ([1]; fatty acid-bound AFP) was “increased” and the “lactate secretion in dendritic cells” value ([1]; fatty acid-bound AFP) was “decreased”.

B2: nAFP: cord blood-derived normal alpha fetoprotein; commercially available (Cell Sciences) (protein, UniProt P02771 19-609, looked up)
Alpha-fetoprotein: B1 Alpha-fetoprotein
With B2 the FAO [3] was “similarly reduces”, the glucose dependent metabolism [3] was “modestly increases” and the “levels of cytochrome C (CytC)” value [4] was “elevated”. For the same molecule, the glucose uptake [5] was “modestly increases”.
